Results reported in ChEMBL document CHEMBL5537122, “Design, synthesis, and biological evaluation of 4-(2-fluorophenoxy)-7-methoxyquinazoline derivatives as dual EGFR/c-Met inhibitors for the treatment of NSCLC” (Eur J Med Chem, 2024).
The source made the active and inactive calls. The calls are words filed in the database; no cut-off is given here.

How the values were obtained:
L02 [1] = assay: Induction in apoptosis in human L02 cells assessed as late apoptotic cells at 2.5 uM incubated for 24 hrs by Annexin V-FITC/Propidium Iodide staining based flow cytometry analysis (reference value: 0.36 %); assay type: toxicity, cell-based; details: l02, 24 h
[2] = biological target: Tyrosine-protein kinase receptor UFO (Homo sapiens) (UniProt P30530); assay: Inhibition of AXL (unknown origin) at 10 uM
NCI-H1975 [3] = assay: Induction in apoptosis in human NCI-H1975 cells assessed as necrotic cells at 2.5 uM incubated for 24 hrs by Annexin V-FITC/Propidium Iodide staining based flow cytometry analysis (reference value: 1.42 %); assay type: functional
NCI-H1975 [4] = assay: Inhibition of colony formation in human NCI-H1975 cells at 2 uM preincubated for 48 hrs followed by media replacement for every 2 days for 14 days by crystal violet staining based microscopic analysis relative to control; assay type: functional
L02 [5] = assay: Induction in apoptosis in human L02 cells assessed as necrotic cells at 1 uM incubated for 24 hrs by Annexin V-FITC/Propidium Iodide staining based flow cytometry analysis (reference value: 6.63 %); assay type: toxicity, cell-based; details: l02, 24 h
NCI-H1975 [6] = assay: Inhibition of colony formation in human NCI-H1975 cells preincubated for 48 hrs followed by media replacement for every 2 days for 14 days by crystal violet staining based microscopic analysis; assay type: functional, cell-based; details: dose 0.25-2 µM
[7] = biological target: Vascular endothelial growth factor receptor 3 (Homo sapiens) (UniProt P35916); assay: Inhibition of FLT4 (unknown origin) at 10 uM
[8] = Acute toxicity in KM mouse assessed as cell damage or necrosis in lung at 100 mg/kg, IG qa administered for 7 days and measured on day 8 by hematoxylin and eosin staining based assay; assay type: organism-based; details: in vivo, po, 192 h, time 8 day
Homo sapiens = organism: Homo sapiens; assay: Inhibition of EGFR T790/C797S mutant (unknown origin) at 10 uM
NCI-H1975 [9] = assay: Induction in apoptosis in human NCI-H1975 cells assessed as late apoptotic cells at 1 uM incubated for 24 hrs by Annexin V-FITC/Propidium Iodide staining based flow cytometry analysis (reference value: 4.46 %); assay type: functional
PC-9 = assay: Antiproliferative activity against human PC-9 cells overexpressing c-Met and EGFR assessed as reduction in cell viability incubated for 72 hrs by MTT assay; assay type: functional, cell-based; details: PC-9, 72 h
A549 [10] = assay: Induction of cell cycle arrest in human A549 cells overexpressing c-MET assessed as accumulation of cells at G2/M phase at 1 uM incubated for 24 hrs by RNase A/propidium iodide staining based flow cytometric analysis (reference value: 12.41 %); assay type: functional
[11] = biological target: Proto-oncogene tyrosine-protein kinase receptor Ret (Homo sapiens) (UniProt P07949); assay: Inhibition of RET (unknown origin) at 10 uM
A549 [12] = assay: Downregulation of phosphorylated Akt expression level human A549 cells overexpressing c-MET incubated for 24 hrs by Western blotting analysis; assay type: functional, cell-based; details: dose 0.2-10 µM
A549 [13] = assay: Antitumor activity against human A549 cells overexpressing c-MET xenografted in BALB/c nude mouse assessed as reduction in tumor volume at 60 mg/kg, IG qod measured for 24 days; assay type: functional, organism-based; details: time 24.0 day
[14] = biological target: Epidermal growth factor receptor (Homo sapiens, UniProt P00533); assay: Inhibition of wild type EGFR (unknown origin) at 10 uM relative to control
[15] = biological target: Insulin-like growth factor 1 receptor (Homo sapiens) (UniProt P08069); assay: Inhibition of IGF-1R (unknown origin) at 10 uM
A549 [16] = assay: Induction of apoptosis in human A549 cells overexpressing c-MET assessed as increase in green fluorescence intensity incubated for 24 hrs by JC-1 staining based fluorescence inverted microscopic analysis; assay type: functional, cell-based; details: dose 1-2.5 µM
A549 [17] = assay: Induction in apoptosis in human A549 cells overexpressing c-MET assessed as necrotic cells at 2.5 uM incubated for 24 hrs by Annexin V-FITC/Propidium Iodide staining based flow cytometry analysis (reference value: 3.22 %); assay type: functional
[18] = biological target: Proto-oncogene tyrosine-protein kinase ROS (Homo sapiens) (UniProt P08922); assay: Inhibition of ROS (unknown origin) at 10 uM
[19] = biological target: Hepatocyte growth factor receptor (Homo sapiens, UniProt P08581); assay: Inhibition of c-MET (unknown origin) at 10 uM relative to control
[20] = Acute toxicity in KM mouse assessed as cell damage or necrosis in liver at 100 mg/kg, IG qa administered for 7 days and measured on day 8 by hematoxylin and eosin staining based assay; assay type: organism-based; details: in vivo, po, 192 h, time 8 day
[21] = biological target: Fibroblast growth factor receptor 1 (Homo sapiens) (UniProt P11362); assay: Inhibition of FGFR1 (unknown origin) at 10 uM
A549 [22] = assay: Antitumor activity against human A549 cells overexpressing c-MET xenografted in BALB/c nude mouse assessed as tumor growth inhibition at 40 mg/kg, IG qod measured for 24 days relative to control; assay type: functional; details: A549, po, 576 h, time 24 day, read-out: TGI
[23] = Hemolytic activity in sheep erythrocytes at 128 ug/ml incubated for 2 hr by UV spectrophotometer relative to control; assay type: toxicity, cell-based, Ovis aries, Erythrocyte; details: at 128 µg/mL, read-out: Activity
[24] = Acute toxicity in KM mouse assessed as cell damage or necrosis in kidney at 100 mg/kg, IG qa administered for 7 days and measured on day 8 by hematoxylin and eosin staining based assay; assay type: organism-based; details: in vivo, po, 192 h, time 8 day
[25] = Nephrotoxicity in KM mouse assessed as effect on urea level at 100 mg/kg, IG qd administered for 7 days by automatic biochemical analyzer; assay type: toxicity, organism-based; details: in vivo, po, 168 h, time 7 day
L02 [26] = assay: Induction in apoptosis in human L02 cells assessed as necrotic cells at 2.5 uM incubated for 24 hrs by Annexin V-FITC/Propidium Iodide staining based flow cytometry analysis (reference value: 6.63 %); assay type: toxicity, cell-based; details: l02, 24 h
[27] = biological target: Receptor-type tyrosine-protein kinase FLT3 (Homo sapiens) (UniProt P36888); assay: Inhibition of FLT3 (unknown origin) at 10 uM
A549 [28] = assay: Induction in apoptosis in human A549 cells overexpressing c-MET assessed as viable cells at 2.5 uM incubated for 24 hrs by Annexin V-FITC/Propidium Iodide staining based flow cytometry analysis (reference value: 81.92 %; assay type: functional; details: read-out: Activity
[29] = Induction in apoptosis in human L02 cells assessed as viable cells at 2.5 uM incubated for 24 hrs by Annexin V-FITC/Propidium Iodide staining based flow cytometry analysis (reference value: 92.75 %); assay type: toxicity, cell-based; details: read-out: Activity
A549 [30] = assay: Induction in apoptosis in human A549 cells overexpressing c-MET assessed as viable cells at 1 uM incubated for 24 hrs by Annexin V-FITC/Propidium Iodide staining based flow cytometry analysis (reference value: 81.92 %); assay type: functional; details: read-out: Activity
A549 [31] = assay: Inhibition of colony formation in human A549 cells overexpressing c-MET at 1 uM preincubated for 48 hrs followed by media replacement for every 2 days for 14 days by crystal violet staining based microscopic analysis relative to control; assay type: functional
[32] = biological target: Epidermal growth factor receptor (Homo sapiens, UniProt P00533, L858R); assay: biochemical
[33] = biological target: Serine/threonine-protein kinase Nek2 (Homo sapiens) (UniProt P51955); assay: Inhibition of NEK2 (unknown origin) at 10 uM
Chain of Serine/threonine-protein kinase Nek2 (Homo sapiens) (P51955 whole entry): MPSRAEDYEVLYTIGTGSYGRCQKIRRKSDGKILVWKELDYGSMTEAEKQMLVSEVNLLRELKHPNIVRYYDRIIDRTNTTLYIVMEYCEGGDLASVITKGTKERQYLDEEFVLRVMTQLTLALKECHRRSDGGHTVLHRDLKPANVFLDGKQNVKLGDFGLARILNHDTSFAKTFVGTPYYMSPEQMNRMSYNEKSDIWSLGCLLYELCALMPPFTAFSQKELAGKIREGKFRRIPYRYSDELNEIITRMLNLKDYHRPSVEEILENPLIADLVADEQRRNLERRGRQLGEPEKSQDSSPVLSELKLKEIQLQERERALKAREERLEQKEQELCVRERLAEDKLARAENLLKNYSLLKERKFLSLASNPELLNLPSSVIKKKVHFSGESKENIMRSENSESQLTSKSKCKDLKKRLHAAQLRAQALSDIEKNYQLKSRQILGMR

Chain of Proto-oncogene tyrosine-protein kinase ROS (Homo sapiens) (P08922 whole entry): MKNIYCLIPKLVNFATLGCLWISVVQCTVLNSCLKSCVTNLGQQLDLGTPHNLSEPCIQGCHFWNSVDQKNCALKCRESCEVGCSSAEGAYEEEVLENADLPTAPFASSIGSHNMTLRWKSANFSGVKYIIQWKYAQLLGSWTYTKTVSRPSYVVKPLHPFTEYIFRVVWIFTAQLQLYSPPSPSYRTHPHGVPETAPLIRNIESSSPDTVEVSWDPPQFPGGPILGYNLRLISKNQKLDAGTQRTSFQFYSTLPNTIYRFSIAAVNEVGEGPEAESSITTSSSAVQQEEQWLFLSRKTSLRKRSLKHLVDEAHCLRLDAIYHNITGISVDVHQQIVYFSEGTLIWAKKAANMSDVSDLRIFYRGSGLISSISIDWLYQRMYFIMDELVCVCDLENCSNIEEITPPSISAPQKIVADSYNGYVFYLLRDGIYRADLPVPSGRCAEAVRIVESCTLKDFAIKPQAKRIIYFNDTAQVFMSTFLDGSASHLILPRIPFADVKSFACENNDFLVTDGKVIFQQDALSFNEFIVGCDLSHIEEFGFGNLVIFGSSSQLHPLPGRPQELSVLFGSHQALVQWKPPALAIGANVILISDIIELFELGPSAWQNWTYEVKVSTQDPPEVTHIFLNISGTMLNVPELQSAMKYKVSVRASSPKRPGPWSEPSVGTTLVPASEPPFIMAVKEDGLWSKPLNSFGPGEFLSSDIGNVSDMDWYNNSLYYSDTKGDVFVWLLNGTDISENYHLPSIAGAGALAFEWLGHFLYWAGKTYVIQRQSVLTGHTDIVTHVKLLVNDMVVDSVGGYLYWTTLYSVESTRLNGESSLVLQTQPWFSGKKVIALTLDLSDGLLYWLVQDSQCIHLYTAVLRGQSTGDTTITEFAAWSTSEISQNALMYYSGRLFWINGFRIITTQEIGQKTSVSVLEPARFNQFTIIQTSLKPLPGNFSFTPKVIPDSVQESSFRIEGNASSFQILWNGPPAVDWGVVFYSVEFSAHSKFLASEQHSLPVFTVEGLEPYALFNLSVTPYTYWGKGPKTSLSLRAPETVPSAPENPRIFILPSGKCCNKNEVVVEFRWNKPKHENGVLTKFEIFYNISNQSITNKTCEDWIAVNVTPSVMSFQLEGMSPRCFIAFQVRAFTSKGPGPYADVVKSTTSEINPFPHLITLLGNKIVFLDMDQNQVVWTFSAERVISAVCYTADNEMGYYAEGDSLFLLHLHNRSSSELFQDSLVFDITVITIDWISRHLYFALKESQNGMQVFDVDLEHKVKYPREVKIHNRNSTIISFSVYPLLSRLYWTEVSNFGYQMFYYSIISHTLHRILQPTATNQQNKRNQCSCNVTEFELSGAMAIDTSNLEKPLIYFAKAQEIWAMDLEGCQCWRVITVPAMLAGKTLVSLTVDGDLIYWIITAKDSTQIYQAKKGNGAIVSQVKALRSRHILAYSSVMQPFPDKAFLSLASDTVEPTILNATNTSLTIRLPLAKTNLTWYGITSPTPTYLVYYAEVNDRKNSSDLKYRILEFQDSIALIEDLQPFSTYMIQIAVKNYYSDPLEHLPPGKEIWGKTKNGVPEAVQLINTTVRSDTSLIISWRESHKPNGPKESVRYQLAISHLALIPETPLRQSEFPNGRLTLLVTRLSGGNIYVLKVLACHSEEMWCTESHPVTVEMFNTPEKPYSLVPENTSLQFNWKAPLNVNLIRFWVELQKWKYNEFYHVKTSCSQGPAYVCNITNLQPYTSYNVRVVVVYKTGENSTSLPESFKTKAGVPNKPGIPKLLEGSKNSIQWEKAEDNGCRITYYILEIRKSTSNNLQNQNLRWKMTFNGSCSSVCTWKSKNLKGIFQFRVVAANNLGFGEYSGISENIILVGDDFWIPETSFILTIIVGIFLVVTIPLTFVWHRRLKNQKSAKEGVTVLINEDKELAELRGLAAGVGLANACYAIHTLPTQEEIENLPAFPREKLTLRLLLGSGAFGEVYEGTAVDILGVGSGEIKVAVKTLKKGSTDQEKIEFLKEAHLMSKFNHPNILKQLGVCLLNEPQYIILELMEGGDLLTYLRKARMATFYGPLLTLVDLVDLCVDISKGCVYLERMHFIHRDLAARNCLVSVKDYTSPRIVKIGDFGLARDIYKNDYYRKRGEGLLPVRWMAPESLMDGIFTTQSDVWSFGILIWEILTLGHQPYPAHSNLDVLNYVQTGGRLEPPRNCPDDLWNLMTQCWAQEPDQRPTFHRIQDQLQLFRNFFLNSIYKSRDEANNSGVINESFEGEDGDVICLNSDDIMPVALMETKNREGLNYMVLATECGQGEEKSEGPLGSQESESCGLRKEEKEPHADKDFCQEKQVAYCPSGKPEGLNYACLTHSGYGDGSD
Chain of Proto-oncogene tyrosine-protein kinase receptor Ret (Homo sapiens) (P07949 whole entry): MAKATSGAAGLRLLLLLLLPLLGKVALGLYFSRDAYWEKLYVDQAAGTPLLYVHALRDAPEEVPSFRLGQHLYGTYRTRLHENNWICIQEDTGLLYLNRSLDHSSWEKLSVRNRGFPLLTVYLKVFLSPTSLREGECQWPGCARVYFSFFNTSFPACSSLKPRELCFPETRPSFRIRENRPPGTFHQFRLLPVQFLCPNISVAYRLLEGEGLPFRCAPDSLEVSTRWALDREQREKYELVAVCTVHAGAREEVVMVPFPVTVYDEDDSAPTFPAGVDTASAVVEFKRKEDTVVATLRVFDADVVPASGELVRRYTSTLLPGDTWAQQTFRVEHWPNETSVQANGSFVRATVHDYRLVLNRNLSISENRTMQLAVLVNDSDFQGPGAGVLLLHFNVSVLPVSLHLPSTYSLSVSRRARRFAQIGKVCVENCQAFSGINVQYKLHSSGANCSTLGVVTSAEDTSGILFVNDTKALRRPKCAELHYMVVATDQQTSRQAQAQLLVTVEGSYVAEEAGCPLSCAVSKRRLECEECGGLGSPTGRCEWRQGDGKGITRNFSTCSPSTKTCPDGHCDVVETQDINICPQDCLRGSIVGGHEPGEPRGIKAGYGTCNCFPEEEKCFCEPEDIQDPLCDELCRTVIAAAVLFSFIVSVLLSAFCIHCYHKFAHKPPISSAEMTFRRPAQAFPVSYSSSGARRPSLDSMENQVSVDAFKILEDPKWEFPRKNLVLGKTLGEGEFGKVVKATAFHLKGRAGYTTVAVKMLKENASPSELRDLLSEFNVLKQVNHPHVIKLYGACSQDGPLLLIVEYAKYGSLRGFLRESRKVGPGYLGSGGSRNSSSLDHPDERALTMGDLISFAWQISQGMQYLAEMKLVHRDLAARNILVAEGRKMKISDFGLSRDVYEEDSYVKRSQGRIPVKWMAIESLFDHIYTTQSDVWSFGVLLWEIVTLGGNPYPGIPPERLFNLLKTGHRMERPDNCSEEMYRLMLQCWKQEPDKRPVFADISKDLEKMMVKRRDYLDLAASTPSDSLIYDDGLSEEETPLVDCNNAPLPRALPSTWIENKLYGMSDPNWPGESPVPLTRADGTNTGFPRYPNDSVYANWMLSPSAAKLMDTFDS
Chain of Receptor-type tyrosine-protein kinase FLT3 (Homo sapiens) (P36888 whole entry): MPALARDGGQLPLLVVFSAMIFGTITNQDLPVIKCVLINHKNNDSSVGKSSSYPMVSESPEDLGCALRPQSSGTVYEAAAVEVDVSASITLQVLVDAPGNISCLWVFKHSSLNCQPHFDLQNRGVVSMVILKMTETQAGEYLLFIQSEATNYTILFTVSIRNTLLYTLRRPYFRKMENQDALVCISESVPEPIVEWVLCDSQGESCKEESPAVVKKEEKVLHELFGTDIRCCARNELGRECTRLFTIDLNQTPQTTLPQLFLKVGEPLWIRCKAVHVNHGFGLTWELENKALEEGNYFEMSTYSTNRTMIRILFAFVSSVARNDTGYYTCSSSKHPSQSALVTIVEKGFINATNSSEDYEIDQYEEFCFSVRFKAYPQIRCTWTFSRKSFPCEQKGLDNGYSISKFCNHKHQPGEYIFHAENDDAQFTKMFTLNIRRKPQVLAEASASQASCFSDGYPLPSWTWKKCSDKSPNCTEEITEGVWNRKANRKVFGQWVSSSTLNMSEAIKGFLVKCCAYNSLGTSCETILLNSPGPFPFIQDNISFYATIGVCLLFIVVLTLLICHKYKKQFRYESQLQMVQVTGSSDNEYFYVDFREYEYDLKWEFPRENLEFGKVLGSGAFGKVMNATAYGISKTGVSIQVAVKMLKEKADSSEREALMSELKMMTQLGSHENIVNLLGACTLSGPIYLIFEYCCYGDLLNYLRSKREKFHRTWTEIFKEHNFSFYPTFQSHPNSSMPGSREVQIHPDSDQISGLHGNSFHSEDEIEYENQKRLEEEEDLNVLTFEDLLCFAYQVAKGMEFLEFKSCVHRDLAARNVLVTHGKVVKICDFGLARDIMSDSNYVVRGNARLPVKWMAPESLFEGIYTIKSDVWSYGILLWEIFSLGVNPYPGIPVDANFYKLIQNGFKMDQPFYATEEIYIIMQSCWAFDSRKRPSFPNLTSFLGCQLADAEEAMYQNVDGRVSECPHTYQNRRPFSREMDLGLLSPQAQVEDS

C=CC(=O)Nc1cc2c(Oc3ccc(NC(=O)n4c(=O)c(-c5ccccc5)c(C)n4C)cc3F)cccc2cc1OC
Activity (L02 [1]): 0.34% | inhibition [2]: inactive | Activity (NCI-H1975 [3]): 2.49% | inhibition at 2 µM (NCI-H1975 [4]): ~100% | Activity (L02 [5]): 7.58% | inhibition (NCI-H1975 [6]): Dose-Dependent Effect | inhibition [7]: Active | Activity [8]: Non-Toxic | inhibition (Homo sapiens): inactive | Activity (NCI-H1975 [9]): 7.27% | IC50 (PC-9): 1050 nM | Activity (A549 [10]): 11.29% | inhibition [11]: inactive | Activity (A549 [12]): Dose-Dependent Effect | Activity (A549 [13]): Active | inhibition [14]: > 90% | inhibition [15]: inactive | Activity (A549 [16]): Dose-Dependent Effect | Activity (A549 [17]): 6.65% | inhibition [18]: Active | inhibition [19]: > 90% | Activity [20]: Non-Toxic | inhibition [21]: inactive | inhibition in vivo at 40 mg/kg (A549 [22]): 25% | hemolysis at 2 h, 128 ug/ml [23]: 5% | Activity [24]: Non-Toxic | Activity [25]: Non-Toxic | Activity (L02 [26]): 4.53% | inhibition [27]: inactive | viability at 2.5 µM (A549 [28]): 60.1% | viability at 24 h, 2.5 µM [29]: 95% | viability at 1 µM (A549 [30]): 70.9% | inhibition at 1 µM (A549 [31]): ~50% | IC50 [32]: 68.1 nM | inhibition [33]: inactive
